Test results reported in patent US10501425B2, “Microbiocidal oxadiazole derivatives” (SYNGENTA PARTICIPATIONS AG, priority 2015, dated 2019).

What was measured:
[1] = tested on: Glomerella lacenarium (Colletotrichum lagenarium); assay: Glomerella lagenarium liquid culture / cucumber / preventative (anthracnose); assay type: cell-based; conditions: Colletotrichum orbiculare; 20 ppm in the applied formulation; liquid culture (PDB), growth inhibition measured photometrically 3 to 4 days after application; compared to untreated; read-out: disease control
Procedure, shortened: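 Conidia from cryogenic storage were mixed into potato dextrose broth. This was added to compound diluted from DMSO into 0.025% Tween20, tested at 20 ppm. Plates were incubated in the dark at 24 °C and 96% relative humidity, and growth was read photometrically after 2–7 days as % activity versus untreated check.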

Phakopsora pachyrhizi = Phakopsora pachyrhizi / soybean / leaf disc preventative (Asian soybean rust); assay type: in vivo; conditions: foliar, 200 ppm in the applied formulation, soybean leaf disks, compared to untreated, read-out: disease control
Method: Leaf disks or leaf segments of various plant species are cut from plants grown in a greenhouse. The cut leaf disks or segments are placed in multiwell plates (24-well format) onto water agar. The leaf disks are sprayed with a test solution before (preventative) or after (curative) inoculation. Compounds to be tested are prepared as DMSO solutions (max. 10 mg/ml) which are diluted to the appropriate concentration with 0.025% Tween20 just before spraying. The inoculated leaf disks or segments are incubated under defined conditions (temperature, relative humidity, light, etc.) according to the respective test system. A single evaluation of disease level is carried out 3 to 14 days after inoculation, depending on the pathosystem. Percent disease control relative to the untreated check leaf disks or segments is then calculated.
Soybean leaf disks are placed on water agar in multiwell plates (24-well format) and sprayed with the formulated test compound diluted in water. One day after application leaf discs are inoculated by spraying a spore suspension on the lower leaf surface. After an incubation period in a climate cabinet of 24-36 hours in darkness at 20° C. and 75% rh leaf disc are kept at 20° C. with 12 h light/day and 75% rh. The activity of a compound is assessed as percent disease control compared to untreated when an appropriate level of disease damage appears in untreated check leaf disks (12 to 14 days after application).
The following compounds at 200 ppm in the applied formulation give at least 80% disease control in this test when compared to untreated control leaf disks under the same conditions, which show extensive disease development.

[2] = tested on: Puccinia recondita f. Sp. Tritici; assay: Puccinia recondita f. sp. tritici / wheat / leaf disc curative (brown rust); assay type: in vivo; conditions: foliar, 24 h, 200 ppm in the applied formulation, wheat leaf segments cv. Kanzler, curative (applied 1 day after inoculation), compared to untreated, read-out: disease control
Procedure, shortened: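 Read-out is percent disease control relative to untreated segments, assessed 6 to 8 days after treatment once check disease is adequate. Kanzler wheat leaf segments on agar receive fungal spores, then test compound (DMSO stock diluted in 0.025% Tween20 or water) 1 day later, under 19° C and 75% relative humidity.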

[3] = tested on: Puccinia recondita f. Sp. Tritici; assay: Puccinia recondita f. sp. tritici / wheat / leaf disc preventative (brown rust); assay type: in vivo; conditions: foliar, 200 ppm in the applied formulation, wheat leaf segments cv. Kanzler, preventative (inoculated 1 day after application), compared to untreated, read-out: disease control
Procedure, shortened: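 Wheat leaf segments (cv. Kanzler) on water agar were sprayed with test compound (DMSO stock diluted in 0.025% Tween20/water), then spore-inoculated 1 day later. Incubation at 19° C., 75% rh, 12 h light/12 h dark; percent disease control versus untreated segments scored 7 to 9 days after application. Tested at 200 ppm.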

Compound | melting point | inhibition of growth at 20 ppm [1] | pest or weed control at 200 ppm (Phakopsora pachyrhizi) | pest or weed control at 200 ppm [2] | pest or weed control at 200 ppm [3]
CCC(=O)NCc1ccc(-c2noc(C(F)(F)F)n2)cc1OC [Compound 1.30, N-[[2-methoxy-4-[5-(trifluoromethyl)-1,2,4-oxadiazol-3-yl]phenyl]methyl]propanamide] | 163 to 165 °C |  |  |  | 
CCC(=O)NCc1ccc(-c2noc(C(F)(F)F)n2)cc1C(F)(F)F [Compound 1.31, N-[[2-(trifluoromethyl)-4-[5-(trifluoromethyl)-1,2,4-oxadiazol-3-yl]phenyl]methyl]propanamide] | 100 to 102 °C |  |  |  | 
CCC(=O)NCc1ccc(-c2noc(C(F)(F)F)n2)cc1C [Compound 1.81, N-[[2-methyl-4-[5-(trifluoromethyl)-1,2,4-oxadiazol-3-yl]phenyl]methyl]propanamide] | 140 to 143 °C | ≥ 80% |  |  | 
N#CCC(=O)NCCc1ccc(-c2noc(C(F)(F)F)n2)cc1 [Compound 1.90, 2-cyano-N-[2-[4-[5-(trifluoromethyl)-1,2,4-oxadiazol-3-yl]phenyl]ethyl]acetamide] |  | ≥ 80% | ≥ 80% | ≥ 80% | ≥ 80%
CC(=O)NCCc1ccc(-c2noc(C(F)(F)F)n2)cc1 [Compound 1.92, N-[2-[4-[5-(trifluoromethyl)-1,2,4-oxadiazol-3-yl]phenyl]ethyl]acetamide] |  | ≥ 80% | ≥ 80% | ≥ 80% | ≥ 80%
COCC(=O)NC(C)(C)c1ccc(-c2noc(C(F)(F)F)n2)cc1 [Compound 1.95, 2-methoxy-N-[1-methyl-1-[4-[5-(trifluoromethyl)-1,2,4-oxadiazol-3-yl]phenyl]ethyl]acetamide] |  | ≥ 80% | ≥ 80% | ≥ 80% | ≥ 80%
CC(C)COC(=O)NCc1ccc(-c2noc(C(F)(F)F)n2)cc1 [Compound 2.8, isobutyl N-[[4-[5-(trifluoromethyl)-1,2,4-oxadiazol-3-yl]phenyl]methyl]carbamate] |  | ≥ 80% | ≥ 80% | ≥ 80% | ≥ 80%
C=CCOC(=O)NCc1ccc(-c2noc(C(F)(F)F)n2)cc1 [Compound 2.10, allyl N-[[4-[5-(trifluoromethyl)-1,2,4-oxadiazol-3-yl]phenyl]methyl]carbamate] |  | ≥ 80% | ≥ 80% | ≥ 80% | ≥ 80%
CCCCOC(=O)NCc1ccc(-c2noc(C(F)(F)F)n2)cc1 [Compound 2.11, butyl N-[[4-[5-(trifluoromethyl)-1,2,4-oxadiazol-3-yl]phenyl]methyl]carbamate] |  | ≥ 80% | ≥ 80% | ≥ 80% | ≥ 80%
O=C(NCc1ccc(-c2noc(C(F)(F)F)n2)cc1)OCCCCCl [Compound 2.13, 4-chlorobutyl N-[[4-[5-(trifluoromethyl)-1,2,4-oxadiazol-3-yl]phenyl]methyl]carbamate] |  | ≥ 80% | ≥ 80% | ≥ 80% | ≥ 80%
CC(C)OC(=O)NCc1ccc(-c2noc(C(F)(F)F)n2)cc1 [Compound 2.14, isopropyl N-[[4-[5-(trifluoromethyl)-1,2,4-oxadiazol-3-yl]phenyl]methyl]carbamate] |  | ≥ 80% | ≥ 80% | ≥ 80% | ≥ 80%
O=C(NCc1ccc(-c2noc(C(F)(F)F)n2)cc1)OCCF [Compound 2.15, 2-fluoroethyl N-[[4-[5-(trifluoromethyl)-1,2,4-oxadiazol-3-yl]phenyl]methyl]carbamate] |  | ≥ 80% | ≥ 80% | ≥ 80% | ≥ 80%
O=C(NCc1ccc(-c2noc(C(F)(F)F)n2)cc1)OCCCCl [Compound 2.16, 3-chloropropyl N-[[4-[5-(trifluoromethyl)-1,2,4-oxadiazol-3-yl]phenyl]methyl]carbamate] |  | ≥ 80% | ≥ 80% | ≥ 80% | ≥ 80%
O=C(NCc1ccc(-c2noc(C(F)(F)F)n2)cc1)OCCCl [Compound 2.17, 2-chloroethyl N-[[4-[5-(trifluoromethyl)-1,2,4-oxadiazol-3-yl]phenyl]methyl]carbamate] |  | ≥ 80% | ≥ 80% | ≥ 80% | ≥ 80%
CC(C)NC(=O)NCc1ccc(-c2noc(C(F)(F)F)n2)cc1 [Compound 3.9, 1-isopropyl-3-[[4-[5-(trifluoromethyl)-1,2,4-oxadiazol-3-yl]phenyl]methyl]urea] |  | ≥ 80% | ≥ 80% | ≥ 80% | ≥ 80%
CCNC(=O)NCc1ccc(-c2noc(C(F)(F)F)n2)cc1 [Compound 3.10, 1-ethyl-3-[[4-[5-(trifluoromethyl)-1,2,4-oxadiazol-3-yl]phenyl]methyl]urea] |  | ≥ 80% | ≥ 80% | ≥ 80% | ≥ 80%
CCN(CC)C(=O)NCc1ccc(-c2noc(C(F)(F)F)n2)cc1 [Compound 3.12, 1,1-diethyl-3-[[4-[5-(trifluoromethyl)-1,2,4-oxadiazol-3-yl]phenyl]methyl]urea] |  | ≥ 80% | ≥ 80% | ≥ 80% | ≥ 80%
CCN(C)C(=O)NCc1ccc(-c2noc(C(F)(F)F)n2)cc1 [Compound 3.13, 1-ethyl-1-methyl-3-[[4-[5-(trifluoromethyl)-1,2,4-oxadiazol-3-yl]phenyl]methyl]urea] |  | ≥ 80% | ≥ 80% | ≥ 80% | ≥ 80%
CCONC(=O)NCc1ccc(-c2noc(C(F)(F)F)n2)cc1 [Compound 3.14, 1-ethoxy-3-[[4-[5-(trifluoromethyl)-1,2,4-oxadiazol-3-yl]phenyl]methyl]urea] |  | ≥ 80% | ≥ 80% | ≥ 80% | ≥ 80%
C=CCNC(=O)NCc1ccc(-c2noc(C(F)(F)F)n2)cc1 [Compound 3.16, 1-allyl-3-[[4-[5-(trifluoromethyl)-1,2,4-oxadiazol-3-yl]phenyl]methyl]urea] |  | ≥ 80% | ≥ 80% | ≥ 80% | ≥ 80%
CONC(=O)NCc1ccc(-c2noc(C(F)(F)F)n2)cc1 [Compound 3.17, 1-methoxy-3-[[4-[5-(trifluoromethyl)-1,2,4-oxadiazol-3-yl]phenyl]methyl]urea] |  | ≥ 80% | ≥ 80% | ≥ 80% | ≥ 80%
